Laboratory results as given in the supplement of paper PMC11061612.

Tests used:
Assay in all cases: combination Emax (second highest fraction inhibited in the dose matrix, 72 h); higher = more inhibition; extreme values may be limits of the assay
EW-3 (Ewing's Sarcoma) = test system: EW-3 (Ewing's Sarcoma)
Outline: (§1)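 Cell lines in DMEM/F12 or RPMI with 10% FBS were plated in 1536-well plates, held 24 hours at 37°C, 5% CO2, then given two-drug dose matrices for 72 hours (DMSO typically 0.2%). Viability was read by CellTiter-Glo 2.0 luminescence and scaled as inhibition from 0 (vehicle wells) to 1 (blank wells). Combination Emax is the second-highest inhibition in the matrix; Bliss excess is observed combination effect minus expected EA + EB − EA·EB, EA and EB being single-agent effects.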

A704 (Kidney Carcinoma) = test system: A704 (Kidney Carcinoma)
Outline: as §1

[1] = test system: HC-1 (Other Blood Carcinomas)
Outline: as §1

[2] = test system: NCI-H1573 (Lung Adenocarcinoma)
Outline: as §1

[3] = test system: SNU-C1 (Colorectal Carcinoma)
Outline: as §1

[4] = test system: SCC-9 (Oral Cavity Carcinoma)
Outline: as §1

[5] = test system: DG-75 (Burkitt's Lymphoma)
Outline: as §1

NH-12 (Neuroblastoma) = test system: NH-12 (Neuroblastoma)
Outline: as §1

[6] = test system: LC4-1 (B-Lymphoblastic Leukemia)
Outline: as §1

[7] = test system: H-EMC-SS (Chondrosarcoma)
Outline: as §1

[8] = test system: HuP-T3 (Pancreatic Carcinoma)
Outline: as §1

[9] = test system: KP-2 (Pancreatic Carcinoma)
Outline: as §1

[10] = test system: VMRC-LCD (Lung Adenocarcinoma)
Outline: as §1

[11] = test system: BV-173 (Chronic Myelogenous Leukemia)
Outline: as §1

SMILES | combination Emax (EW-3 (Ewing's Sarcoma)) | combination Emax (A704 (Kidney Carcinoma)) | combination Emax [1] | combination Emax [2] | combination Emax [3] | combination Emax [4] | combination Emax [5] | combination Emax (NH-12 (Neuroblastoma)) | combination Emax [6] | combination Emax [7] | combination Emax [8] | combination Emax [9] | combination Emax [10] | combination Emax [11]
CC1(C)CCC(CN2CCN(c3ccc(C(=O)NS(=O)(=O)c4ccc(NCC5CCOCC5)c([N+](=O)[O-])c4)c(Oc4cnc5[nH]ccc5c4)c3)CC2)=C(c2ccc(Cl)cc2)C1 [Venetoclax] + C1CN(CCC1(C(=O)N[C@@H](CCO)C2=CC=C(C=C2)Cl)N)C3=NC=NC4=C3C=CN4 [Capivasertib] (first compound max 1 µM, 7x7, partner max 3 µM) | 0.683 | 0.318 | 0.452 | 0.194 | 0.428 | 0.146 | 0.179 | 0.612 | 1 | 0.413 | 0.166 | 0.0692 | 0.193 | 0.897
CC1(C)CCC(CN2CCN(c3ccc(C(=O)NS(=O)(=O)c4ccc(NCC5CCOCC5)c([N+](=O)[O-])c4)c(Oc4cnc5[nH]ccc5c4)c3)CC2)=C(c2ccc(Cl)cc2)C1 [Venetoclax] + C=CCn1c(=O)c2cnc(Nc3ccc(N4CCN(C)CC4)cc3)nc2n1-c1cccc(C(C)(C)O)n1 [AZD1775] (first compound max 1 µM, partner max 1 µM) | 0.819 | 0.463 | 1 | 0.31 | 0.555 | 0.294 | 0.833 | 0.952 | 1 | 0.223 | 0.399 | 0.364 | 0.391 | 0.941
CC1(C)CCC(CN2CCN(c3ccc(C(=O)NS(=O)(=O)c4ccc(NCC5CCOCC5)c([N+](=O)[O-])c4)c(Oc4cnc5[nH]ccc5c4)c3)CC2)=C(c2ccc(Cl)cc2)C1 [Venetoclax] + CCN(CCO)CCCOc1ccc2c(Nc3cc(CC(=O)Nc4cccc(F)c4)[nH]n3)ncnc2c1 [AZD2811] (first compound max 1 µM, 7x7, partner max 1 µM) | 0.779 | 0.167 | 0.712 | 0.215 | 0.266 | 0.25 | 0.204 | 0.933 | 1 | 0.164 | 0.197 | 0.228 | 0.626 | 0.958
CC1(C)CCC(CN2CCN(c3ccc(C(=O)NS(=O)(=O)c4ccc(NCC5CCOCC5)c([N+](=O)[O-])c4)c(Oc4cnc5[nH]ccc5c4)c3)CC2)=C(c2ccc(Cl)cc2)C1 [Venetoclax] + CN(C)CCCOc1ccc(-c2ccc3ncc4c(c3c2)n(C2CCOCC2)c(=O)n4C)cn1 [AZD0156] (first compound max 1 µM, 7x7, partner max 1 µM) | 0.799 | 0.185 | 0.207 | 0.168 | 0.163 | 0.174 | 0.125 | 0.483 | 1 | 0.206 | 0.145 | 0.19 | 0.153 | 0.833
CC1(C)CCC(CN2CCN(c3ccc(C(=O)NS(=O)(=O)c4ccc(NCC5CCOCC5)c([N+](=O)[O-])c4)c(Oc4cnc5[nH]ccc5c4)c3)CC2)=C(c2ccc(Cl)cc2)C1 [Venetoclax] + COc1cc(Nc2ncc3c(n2)-c2ccc(Cl)cc2C(c2c(F)cccc2OC)=NC3)ccc1C(=O)O [Alisertib] (first compound max 1 µM, 7x7, partner max 10 µM) | 0.847 | 0.758 | 0.861 | 0.378 | 0.251 | 0.274 | 0.518 | 0.977 | 1 | 0.658 | 0.337 | 0.267 | 0.619 | 0.971
CC1(C)CCC(CN2CCN(c3ccc(C(=O)NS(=O)(=O)c4ccc(NCC5CCOCC5)c([N+](=O)[O-])c4)c(Oc4cnc5[nH]ccc5c4)c3)CC2)=C(c2ccc(Cl)cc2)C1 [Venetoclax] + C[C@@H]1COCCN1C2=NC(=NC(=C2)C3(CC3)[S@](=N)(=O)C)C4=C5C=CNC5=NC=C4 [AZD6738] (first compound max 1 µM, 7x7, partner max 10 µM) | 0.844 | 0.48 | 0.864 | 0.579 | 0.366 | 0.342 | 0.781 | 0.968 | 1 | 0.347 | 0.663 | 0.277 | 0.537 | 0.954
CC1(C)CCC(CN2CCN(c3ccc(C(=O)NS(=O)(=O)c4ccc(NCC5CCOCC5)c([N+](=O)[O-])c4)c(Oc4cnc5[nH]ccc5c4)c3)CC2)=C(c2ccc(Cl)cc2)C1 [Venetoclax] + C[C@@H](Nc1cc(F)cc(F)c1)c1cc(C(=O)N(C)C)cc2c(=O)cc(N3CCOCC3)oc12 [AZD8186] (first compound max 1 µM, 7x7, partner max 3 µM) | 0.736 | 0.429 | 0.616 | 0.162 | 0.063 | 0.193 | 0.386 | 0.612 | 1 | 0.323 | 0.119 | 0.0788 | 0.093 | 0.82
CC1(C)CCC(CN2CCN(c3ccc(C(=O)NS(=O)(=O)c4ccc(NCC5CCOCC5)c([N+](=O)[O-])c4)c(Oc4cnc5[nH]ccc5c4)c3)CC2)=C(c2ccc(Cl)cc2)C1 [Venetoclax] + Cc1cc2ncnn2cc1Nc1ncc2c(n1)n(C1CCOCC1)c(=O)n2C [AZD7648] (first compound max 1 µM, 7x7, partner max 10 µM) | 0.735 | 0.32 | 0.481 | 0.173 | 0.227 | 0.194 | 0.317 | 0.538 | 1 | 0.327 | 0.166 | 0.175 | 0.179 | 0.811
CC1(C)CCC(CN2CCN(c3ccc(C(=O)NS(=O)(=O)c4ccc(NCC5CCOCC5)c([N+](=O)[O-])c4)c(Oc4cnc5[nH]ccc5c4)c3)CC2)=C(c2ccc(Cl)cc2)C1 [Venetoclax] + Cn1cnc2c(F)c(Nc3ccc(Br)cc3Cl)c(C(=O)NOCCO)cc21 [Selumetinib] (first compound max 1 µM, 7x7, partner max 3 µM) | 0.643 | 0.158 | 0.521 | 0.289 | 0.467 | 0.386 | 0.257 | 0.777 | 1 | 0.341 | 0.316 | 0.455 | 0.109 | 0.906
